Some test systems named below: RXF 393 renal; SF-268 CNS; HOP-92 NSCLC; UO-31 renal; SW-620 colon; HCC-2998 colon; SF-295 CNS; UACC-62 melanoma; 786-0 renal; ACHN renal; BT-549 breast; HT29 colon; TK-10 renal; NCI-H23 lung.
Common to all, as to test: DTP human tumour cell line panel, 48 h

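Tested at 5 concentrations; 48 h exposure; 96-well plates; endpoints linearly interpolated, else capped at highest concentration. TGI: concentration producing complete growth inhibition.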

For orientation: TGI means the concentration at which net growth stops. A high value points to lower sensitivity of the cells.

On to `Cc1ccc(C(=O)c2[nH]c(Nc3cc(C)ccn3)c(C(=S)Nc3ccccc3)c2N)cc1`, for which the TGI in the assay with RXF 393 renal, in the assay with SF-268 CNS, in the assay with HOP-92 NSCLC, with UO-31 renal, in the assay on SW-620 colon and in the assay on HCC-2998 colon was more than 100 µM in each case. In addition, the TGI in the assay with SF-295 CNS, in the assay with UACC-62 melanoma, in the assay on 786-0 renal, in the assay with ACHN renal, in the assay with BT-549 breast and in the assay on HT29 colon was more than 100 µM in each case. For the same molecule, the TGI in the assay with TK-10 renal and in the assay on NCI-H23 lung was more than 100 µM each time.
As for `NC(=S)N=Nc1c(O)cc(Nc2ccc(Cl)cc2Cl)c2ccccc12`, the TGI was 51.4 µM in the assay with RXF 393 renal; more than 100 µM in the assay on SF-268 CNS; 52.4 µM with HOP-92 NSCLC; more than 100 µM in the assay on UO-31 renal; more than 100 µM with SW-620 colon; more than 100 µM in the assay with HCC-2998 colon. In addition, the TGI in the assay with SF-295 CNS was 45.9 µM; with UACC-62 melanoma, 29.4 µM; with 786-0 renal, 26.3 µM; with ACHN renal, 27.5 µM; in the assay with BT-549 breast, 97.5 µM; in the assay with HT29 colon it was more than 100 µM. The TGI was more than 100 µM in the assay on TK-10 renal and 97.7 µM in the assay on NCI-H23 lung.
Consider `O=C(/C=C1\C[C@H]2C=Nc3ccccc3C(=O)N2C1)NCCCCCNC(=O)/C=C1\C[C@H]2C=Nc3ccccc3C(=O)N2C1`, for which the TGI in the assay on RXF 393 renal worked out at 11.6 µM; in the assay with SF-268 CNS, 18.5 µM; with HOP-92 NSCLC it was 16.1 µM; with UO-31 renal, 3.8 µM; with SW-620 colon it was 5.93 µM; with HCC-2998 colon it was 32.7 µM. The TGI is 33 µM in the assay on SF-295 CNS; 28.8 µM with UACC-62 melanoma; 3.42 µM in the assay on 786-0 renal; 3.88 µM in the assay on ACHN renal; 26 µM in the assay on BT-549 breast; 27.4 µM in the assay with HT29 colon. In addition, the TGI is 10.5 µM in the assay on TK-10 renal and 26.2 µM with NCI-H23 lung.
As to `COc1ccc(N2C(=O)C3c4[nH]c5ccccc5c4C4C(C)CCCC4C3C2=O)cc1` (stereo unspecified), the TGI in the assay with RXF 393 renal is more than 72.6 µM; in the assay on SF-268 CNS, more than 100 µM; in the assay on HOP-92 NSCLC, more than 100 µM; in the assay on UO-31 renal, more than 100 µM; in the assay on SW-620 colon, more than 100 µM; in the assay with HCC-2998 colon, more than 100 µM. Moreover, the TGI is more than 100 µM with SF-295 CNS; more than 100 µM in the assay with UACC-62 melanoma; more than 63.5 µM in the assay with 786-0 renal; more than 100 µM in the assay with ACHN renal; more than 33.6 µM in the assay on BT-549 breast; more than 100 µM with HT29 colon. For the same molecule, the TGI in the assay with TK-10 renal and with NCI-H23 lung was more than 100 µM throughout.
As to `COn1cc(CO)c2ccccc21`, the TGI in the assay on RXF 393 renal was 47.8 µM; in the assay on SF-268 CNS it was more than 100 µM; in the assay with HOP-92 NSCLC, more than 100 µM; in the assay with UO-31 renal it was more than 82 µM; in the assay on SW-620 colon it was more than 100 µM; with HCC-2998 colon, more than 100 µM. The TGI in the assay with SF-295 CNS, with UACC-62 melanoma, in the assay on 786-0 renal, in the assay with ACHN renal, in the assay on BT-549 breast and with HT29 colon was more than 100 µM in each case. Also, the figures for the total growth inhibition concentration (TGI) in the assay on TK-10 renal and with NCI-H23 lung were more than 46.2 µM and more than 100 µM, respectively.
With `CCOP(=O)(OCC)c1cc(-c2ccccc2)ccc1N`, the TGI in the assay on RXF 393 renal, in the assay on SF-268 CNS, in the assay with HOP-92 NSCLC, in the assay with UO-31 renal, with SW-620 colon and with HCC-2998 colon was more than 100 µM each time. Besides, the TGI in the assay with SF-295 CNS, with UACC-62 melanoma, with 786-0 renal, with ACHN renal, in the assay with BT-549 breast and in the assay on HT29 colon was more than 100 µM throughout. The TGI in the assay with TK-10 renal and with NCI-H23 lung was more than 100 µM each time.
In the case of `OC(c1ccco1)C(F)(F)c1nc2ccccc2o1` (stereo unspecified), the TGI in the assay on RXF 393 renal, in the assay with SF-268 CNS, in the assay with HOP-92 NSCLC, in the assay on UO-31 renal, in the assay with SW-620 colon and in the assay on HCC-2998 colon was more than 100 µM each time. Also, the TGI in the assay with SF-295 CNS, with UACC-62 melanoma, with 786-0 renal, in the assay on ACHN renal, with BT-549 breast and with HT29 colon was more than 100 µM each time. The TGI with TK-10 renal and with NCI-H23 lung was more than 100 µM in each case.
In the case of `COc1ccc(CCCCl)c(C2=NCCc3ccccc32)c1`, the TGI in the assay with RXF 393 renal, in the assay with SF-268 CNS, with HOP-92 NSCLC, in the assay with UO-31 renal, in the assay on SW-620 colon and in the assay on HCC-2998 colon was more than 100 µM throughout. For the same molecule, the TGI in the assay on SF-295 CNS, in the assay with UACC-62 melanoma, in the assay with 786-0 renal, with ACHN renal, in the assay on BT-549 breast and in the assay on HT29 colon was more than 100 µM in each case. The TGI in the assay with TK-10 renal and in the assay with NCI-H23 lung was more than 100 µM in each case.
For the molecule `NNC(=O)c1cccc2c1Oc1ccccc1S2`, the TGI in the assay with RXF 393 renal, in the assay with SF-268 CNS, in the assay on HOP-92 NSCLC, in the assay with UO-31 renal, in the assay with SW-620 colon and in the assay on HCC-2998 colon was more than 100 µM each time. Further, the TGI in the assay with SF-295 CNS, in the assay with UACC-62 melanoma, in the assay with 786-0 renal, in the assay on ACHN renal, with BT-549 breast and in the assay with HT29 colon was more than 100 µM each time. Besides, the TGI in the assay on TK-10 renal and in the assay with NCI-H23 lung was more than 100 µM each time.

For the origin of these results see PubChem BioAssay (NCI).
